Source: article PMC11555678, “Improved Broad Spectrum Antifungal Drug Synergies with Cryptomycin, a Cdc50-Inspired Antifungal Peptide” (ACS Infectious Diseases, 2024)
Values after ≈ are worked out from the molar mass of the structure shown. Read-outs that look alike come from different tables or passages of the source.

Assays:
C. neoformans cdc50Δ = experiment: microbe, parasite or virus in culture; type: cell-based, Cryptococcus neoformans; conditions: Cryptococcus neoformans, 48 h
Protocol: (§1) All microdilution assays with fungi were carried out in accordance with CLSI protocols from M27 for yeasts and M38 for filamentous fungi, respectively, unless otherwise specified.[64],[65] Briefly, 96-well plates were charged with RPMI1640 media, with operating volume in the first column, 200 μL, and half operating volume, 100 μL, in the remaining wells. Drug stock solution in DMSO was aliquoted into the first well in each row. Half of the volume in the dosed well was serially diluted 2-fold until column 11. Column 11 was used as the negative growth control, and column 12 was used as the positive growth control. ON yeast cultures in YPD were washed twice in DD-H2O, resuspended in PBS, and adjusted to 5000 cfu/mL in RPMI. The 96-well plate was inoculated with 100 μL aliquots of cell suspension per well. Plates were incubated at 37 °C for 2 days.

C. neoformans apt2Δ = experiment: microbe, parasite or virus in culture; type: cell-based, Cryptococcus neoformans; conditions: Cryptococcus neoformans, 48 h
Protocol: as §1

C. neoformans MRL862 = experiment: microbe, parasite or virus in culture; type: cell-based, Cryptococcus neoformans; conditions: Cryptococcus neoformans, MRL862; compound alone; RPMI1640, 37 °C, 48 h; read-out: MIC
Protocol: as §1

C. neoformans apt4Δ = experiment: microbe, parasite or virus in culture; type: cell-based, Cryptococcus neoformans; conditions: Cryptococcus neoformans, 48 h
Protocol: as §1

C. neoformans apt1Δ = experiment: microbe, parasite or virus in culture; type: cell-based, Cryptococcus neoformans; conditions: Cryptococcus neoformans, 48 h
Protocol: as §1

C. neoformans apt3Δ = experiment: microbe, parasite or virus in culture; type: cell-based, Cryptococcus neoformans; conditions: Cryptococcus neoformans, 48 h
Protocol: as §1

C. neoformans crm1Δ = experiment: microbe, parasite or virus in culture; type: cell-based, Cryptococcus neoformans; conditions: Cryptococcus neoformans, 48 h
Protocol: as §1

C. neoformans Crm1^OE = experiment: microbe, parasite or virus in culture; type: cell-based, Cryptococcus neoformans; conditions: Cryptococcus neoformans, 48 h
Protocol: as §1

C. neoformans H99 = experiment: microbe, parasite or virus in culture; type: cell-based, Cryptococcus neoformans; conditions: Cryptococcus neoformans, H99, 48 h
Protocol: as §1

A. fumigatus AF293 [1] = experiment: microbe, parasite or virus in culture; type: cell-based, Aspergillus fumigatus; conditions: Aspergillus fumigatus, AF293, 48 h
Protocol: as §1

Cn MRL862 = type: cell-based, Cryptococcus neoformans; conditions: RPMI1640, 37 °C, 48 h
Protocol: as §1
(§2) To assess drug synergy, the initial media charged to the plate contained the peptide at twice the final operating concentration; the remaining processing steps were identical to the MIC experiment. Upon addition of 100 μL of inoculant, the final operating concentration was achieved. Control MIC plates were prepared alongside drug synergy plates to account for the day-to-day variability in any individual MIC. FIC index is computed using eq 1. All MIC assays and drug synergy assays were completed with two technical replicates per 96-well plate and a minimum of two biological replicates per drug combination. If a difference in MIC between the two technical replicates on the plate were observed, only the higher concentration was reported as the MIC to reduce the possibility of type 1 error (false positive) [drawing 1] 1

C. albicans SC5413 [2] = experiment: microbe, parasite or virus in culture; type: cell-based, Candida albicans; conditions: Candida albicans, SC5413; compound alone; RPMI1640, 37 °C, 48 h; read-out: MIC
Protocol: as §1

C. auris B11245 [3] = experiment: microbe, parasite or virus in culture; type: cell-based, Candida auris; conditions: Candidozyma auris, B11245; compound alone; RPMI1640, 37 °C, 48 h; * = paradoxical growth observed (CAS); read-out: MIC
Protocol: as §1

C. glabrata 2001 [4] = type: cell-based, Candida glabrata; conditions: RPMI1640, 37 °C, 48 h
Protocol: as §1, §2

C. albicans SC5413 [5] = type: cell-based, Candida albicans; conditions: RPMI1640, 37 °C, 48 h; for MIC of antifungal in combination with KKOO: azole MICs unclear (intermediate phenotype); for MIC of antifungal in combination with KKOO-NH2: azole MICs could not be determined (intermediate phenotype)
Protocol: as §1, §2

C. auris B11245 [6] = type: cell-based, Candida auris; conditions: RPMI1640, 37 °C, 48 h, CAS: paradoxical growth; for MIC of antifungal in combination with KKOO: MIC = <20% growth; for MIC of antifungal in combination with KKOO-NH2: MIC = well with <20% growth
Protocol: as §1, §2

A. fumigatus AF293 [7] = experiment: Drug synergy (MIC in peptide-supplemented media); type: cell-based, Aspergillus fumigatus; conditions: RPMI1640, 37 °C, 48 h, CAS: paradoxical growth; for MIC of antifungal in combination with KKOO: MIC = <20% growth; for MIC of antifungal in combination with KKOO-NH2: MIC = well with <20% growth
Protocol: as §1, §2

C. glabrata FKS1-S629P = experiment: microbe, parasite or virus in culture; type: cell-based, Candida glabrata; conditions: Nakaseomyces glabratus, FKS1S629P, 48 h
Protocol: as §1

C. glabrata 2001 [8] = experiment: microbe, parasite or virus in culture; type: cell-based, Candida glabrata; conditions: Nakaseomyces glabratus, 2001; compound alone; RPMI1640, 37 °C, 48 h; read-out: MIC
Protocol: as §1

C. glabrata FKS2-S663P = experiment: microbe, parasite or virus in culture; type: cell-based, Candida glabrata; conditions: Nakaseomyces glabratus, FKS2S663P, 48 h
Protocol: as §1

CCC(C)n1ncn(-c2ccc(N3CCN(c4ccc(OCC5COC(Cn6cncn6)(c6ccc(Cl)cc6Cl)O5)cc4)CC3)cc2)c1=O (stereo not shown) [ITR, itraconazole]
MIC (C. neoformans cdc50Δ): 0.002 µg/mL (≈ 0.00283 µM)
MIC (C. neoformans apt2Δ): 0.125 µg/mL (≈ 0.177 µM)
MIC (C. neoformans MRL862): 0.031 µg/mL (≈ 0.0439 µM)
MIC (C. neoformans apt4Δ): 0.062 µg/mL (≈ 0.0879 µM)
MIC (C. neoformans apt1Δ): 0.5 µg/mL (≈ 0.709 µM)
MIC (C. neoformans apt3Δ): 0.062 µg/mL (≈ 0.0879 µM)
MIC (C. neoformans crm1Δ): 0.062 µg/mL (≈ 0.0879 µM)
MIC (C. neoformans Crm1^OE): 0.016 µg/mL (≈ 0.0227 µM)
MIC (C. neoformans H99): 0.125 µg/mL (≈ 0.177 µM)
MIC (A. fumigatus AF293 [1]): 0.125 µg/mL (≈ 0.177 µM)
MIC of antifungal in combination with KKOO (Cn MRL862; +0 μg/mL KKOO (control)): 0.062 µg/mL
MIC of antifungal in combination with KKOO-NH2 (Cn MRL862; +0 μg/mL KKOO-NH2 (control)): 0.062 µg/mL
MIC of antifungal in combination with KKOO-NH2 (Cn MRL862; +1 μg/mL KKOO-NH2): 0.062 µg/mL
MIC of antifungal in combination with KKOO (Cn MRL862; +1 μg/mL KKOO): 0.031 µg/mL
MIC of antifungal in combination with KKOO-NH2 (Cn MRL862; +2 μg/mL KKOO-NH2): 0.016 µg/mL
MIC of antifungal in combination with KKOO (Cn MRL862; +2 μg/mL KKOO): 0.016 µg/mL
MIC of antifungal in combination with KKOO-NH2 (Cn MRL862; +4 μg/mL KKOO-NH2): 0.004 µg/mL
MIC of antifungal in combination with KKOO (Cn MRL862; +4 μg/mL KKOO): 0.556 µg/mL
MIC (C. albicans SC5413 [2]): > 1 µg/mL
MIC (C. auris B11245 [3]): 0.5 µg/mL (≈ 0.709 µM)
MIC of antifungal in combination with KKOO (C. glabrata 2001 [4]; +0 μg/mL KKOO (control)): 0.5 µg/mL
MIC of antifungal in combination with KKOO-NH2 (C. glabrata 2001 [4]; +0 μg/mL KKOO-NH2 (control)): 0.5 µg/mL
MIC of antifungal in combination with KKOO-NH2 (C. glabrata 2001 [4]; +1 μg/mL KKOO-NH2): 0.25 µg/mL
MIC of antifungal in combination with KKOO (C. glabrata 2001 [4]; +1 μg/mL KKOO): 0.25 µg/mL
MIC of antifungal in combination with KKOO-NH2 (C. glabrata 2001 [4]; +2 μg/mL KKOO-NH2): 0.125 µg/mL
MIC of antifungal in combination with KKOO (C. glabrata 2001 [4]; +2 μg/mL KKOO): 0.125 µg/mL
MIC of antifungal in combination with KKOO-NH2 (C. glabrata 2001 [4]; +4 μg/mL KKOO-NH2): 0.031 µg/mL
MIC of antifungal in combination with KKOO (C. glabrata 2001 [4]; +4 μg/mL KKOO): 0.062 µg/mL
MIC of antifungal in combination with KKOO (C. glabrata 2001 [4]; +8 μg/mL KKOO): 0.062 µg/mL
MIC of antifungal in combination with KKOO (C. albicans SC5413 [5]; +0 μg/mL KKOO (control)): > 1 µg/mL
MIC of antifungal in combination with KKOO-NH2 (C. albicans SC5413 [5]; +0 μg/mL KKOO-NH2 (control)): >1 µg/mL
MIC of antifungal in combination with KKOO-NH2 (C. albicans SC5413 [5]; +1 μg/mL KKOO-NH2): >1 µg/mL
MIC of antifungal in combination with KKOO (C. albicans SC5413 [5]; +1 μg/mL KKOO): > 1 µg/mL
MIC of antifungal in combination with KKOO-NH2 (C. albicans SC5413 [5]; +2 μg/mL KKOO-NH2): >1 µg/mL
MIC of antifungal in combination with KKOO (C. albicans SC5413 [5]; +2 μg/mL KKOO): > 1 µg/mL
MIC of antifungal in combination with KKOO-NH2 (C. albicans SC5413 [5]; +4 μg/mL KKOO-NH2): >1 µg/mL
MIC of antifungal in combination with KKOO (C. albicans SC5413 [5]; +4 μg/mL KKOO): > 1 µg/mL
MIC of antifungal in combination with KKOO (C. albicans SC5413 [5]; +8 μg/mL KKOO): > 1 µg/mL
MIC of antifungal in combination with KKOO (C. auris B11245 [6]; +0 μg/mL KKOO (control)): 0.5 µg/mL
MIC of antifungal in combination with KKOO-NH2 (C. auris B11245 [6]; +0 μg/mL KKOO-NH2 (control)): 0.5 µg/mL
MIC of antifungal in combination with KKOO-NH2 (C. auris B11245 [6]; +1 μg/mL KKOO-NH2): 0.125 µg/mL
MIC of antifungal in combination with KKOO (C. auris B11245 [6]; +1 μg/mL KKOO): 0.25 µg/mL
MIC of antifungal in combination with KKOO-NH2 (C. auris B11245 [6]; +2 μg/mL KKOO-NH2): 0.062 µg/mL
MIC of antifungal in combination with KKOO (C. auris B11245 [6]; +2 μg/mL KKOO): 0.062 µg/mL
MIC of antifungal in combination with KKOO-NH2 (C. auris B11245 [6]; +4 μg/mL KKOO-NH2): 0.016 µg/mL
MIC of antifungal in combination with KKOO (C. auris B11245 [6]; +4 μg/mL KKOO): 0.031 µg/mL
MIC of antifungal in combination with KKOO (A. fumigatus AF293 [7]; +0 μg/mL KKOO (control)): 0.125 µg/mL
MIC of antifungal in combination with KKOO-NH2 (A. fumigatus AF293 [7]; +0 μg/mL KKOO-NH2 (control)): 0.125 µg/mL
MIC of antifungal in combination with KKOO-NH2 (A. fumigatus AF293 [7]; +1 μg/mL KKOO-NH2): 0.125 µg/mL
MIC of antifungal in combination with KKOO (A. fumigatus AF293 [7]; +1 μg/mL KKOO): 0.125 µg/mL
MIC of antifungal in combination with KKOO-NH2 (A. fumigatus AF293 [7]; +2 μg/mL KKOO-NH2): 0.062 µg/mL
MIC of antifungal in combination with KKOO (A. fumigatus AF293 [7]; +2 μg/mL KKOO): 0.062 µg/mL
MIC of antifungal in combination with KKOO-NH2 (A. fumigatus AF293 [7]; +4 μg/mL KKOO-NH2): 0.062 µg/mL
MIC of antifungal in combination with KKOO (A. fumigatus AF293 [7]; +4 μg/mL KKOO): 0.062 µg/mL
MIC of antifungal in combination with KKOO-NH2 (A. fumigatus AF293 [7]; +8 μg/mL KKOO-NH2): 0.031 µg/mL
MIC (C. glabrata FKS1-S629P): 0.125 µg/mL (≈ 0.177 µM)
MIC (C. glabrata 2001 [8]): 0.5 µg/mL (≈ 0.709 µM)
MIC (C. glabrata FKS2-S663P): 0.125 µg/mL (≈ 0.177 µM)
